Values of other authors in PubChem BioAssay AID1259409 (Chemical Carcinogenesis Research Information System (CCRIS), 2018).

Tested on: rodent chemically induced tumor inhibition, incidence and multiplicity
Assay: CCRIS tumor inhibitor studies
Details: Promoter: NONE USED

Structure (SMILES) | tumour outcome (control, treated, inhibition, significance) (Carcinogen: AZOXYMETHANE, 25843-45-2, Dose [Inhibitor]: 0, 5 MG/G IN DIET FOR 22 WK BEGINNING 3 D POST LAST CARCINOGEN DOSE (STUDY DURATION: 25 WK), Route [Inhibitor]: ORAL, Species: RAT, Strain/Sex: F344/MALE, Target Tissue: Type of Lesion: DUODENUM: ADENOCARCINOMA, Dose [Carcinogen]: 15 MG/KG BW 2/WK FOR 3 WK) | tumour outcome (control, treated, inhibition, significance) (Carcinogen: AZOXYMETHANE, 25843-45-2, Dose [Inhibitor]: 0, 5 MG/G IN DIET FOR 22 WK BEGINNING 3 D POST LAST CARCINOGEN DOSE (STUDY DURATION: 25 WK), Route [Inhibitor]: ORAL, Species: RAT, Strain/Sex: F344/MALE, Target Tissue: Type of Lesion: LARGE BOWEL: ADENOMATOUS POLYP, Dose [Carcinogen]: 15 MG/KG BW 2/WK FOR 3 WK) | tumour outcome (control, treated, inhibition, significance) (Carcinogen: BENZO[A]PYENE, 50-32-8, Dose [Inhibitor]: 0.028 MMOL/G DIET DAILY FOR 6 WK STARTING 14 D PRIOR TO THE FIRST UNTIL 1 D AFTER LAST CARCINOGEN DOSE FOLLOWED BY AN OB, Route [Inhibitor]: ORAL, Species: MOUSE, Strain/Sex: STRAIN-A/FEMALE, Target Tissue: Type of Lesion: LUNG: ADENOMA, Dose [Carcinogen]: 3 MG IN 0.2 ML COTTONSEED OIL GIVEN 3X AT 2 WK INTERVALS) | tumour outcome (control, treated, inhibition, significance) (Carcinogen: BENZO[A]PYENE, 50-32-8, Dose [Inhibitor]: 0.028 MMOL/G DIET DAILY STARTING 2 WK AFTER FINAL CARCINOGEN DOSE THROUGH THE END OF THE STUDY (STUDY DURATION: 14 WK), Route [Inhibitor]: ORAL, Species: MOUSE, Strain/Sex: ICR/FEMALE, Target Tissue: Type of Lesion: FORESTOMACH: PAPILLOMA, Dose [Carcinogen]: 1.5 MG IN 0.2 ML CORN OIL GIVEN 2/WK FOR 4 WK) | tumour outcome (control, treated, inhibition, significance) (Carcinogen: BENZO[A]PYRENE, 50-32-8, Dose [Inhibitor]: 0, 3.3 UMOL/G DIET BEGINNING 1 WK PRIOR TO CARCINOGEN TREATMENT AND CONTINUING FOR 1 WK POST CARCINOGEN TREATMENT FOLLOW, Route [Inhibitor]: ORAL, Species: MOUSE, Strain/Sex: CD-1/FEMALE, Target Tissue: Type of Lesion: FORESTOMACH: PAPILLOMA, Dose [Carcinogen]: 1 MG IN 0.2 ML CORN OIL 2/WK FOR 4 WK) | tumour outcome (control, treated, inhibition, significance) (Carcinogen: BENZO[A]PYRENE, 50-32-8, Dose [Inhibitor]: 0.03 MMOL/G OF DIET DAILY STARTING 7 D BEFORE AND CONTINUING THROUGH 3 D AFTER CARCINOGEN TREATMENT FOLLOWED BY OBSERVAT, Route [Inhibitor]: ORAL, Species: MOUSE, Strain/Sex: ICR/FEMALE, Target Tissue: Type of Lesion: FORESTOMACH: NEOPLASM, Dose [Carcinogen]: 1 MG IN 0.2 ML CORN OIL 2/WK FOR 4 WK) | tumour outcome (control, treated, inhibition, significance) (Carcinogen: BETA-PROPIOLACTONE, 57-57-8, Dose [Inhibitor]: 4.2 MG/G DIET DAILY FOR 14 WK STARTING 12 D PRIOR TO FIRST CARCINOGEN DOSE UNTIL 1 D AFTER LAST CARCINOGEN DOSE FOLLOWED, Route [Inhibitor]: ORAL, Species: MOUSE, Strain/Sex: ICR/FEMALE, Target Tissue: Type of Lesion: FORESTOMACH: PAPILLOMA OR CARCINOMA, Dose [Carcinogen]: 2 MG IN 0.1 ML PROPYLENE GLYCOL 2/WK FOR 12 WK) | tumour outcome (control, treated, inhibition, significance) (Carcinogen: BETA-PROPIOLACTONE, 57-57-8, Dose [Inhibitor]: 5.2 MG IN 0.1 ML PROPYLENE GLYCOL 2/WK FOR 12 WK GIVEN 1 HR PRIOR TO EACH CARCINOGEN ADMINISTRATION FOLLOWED BY AN OBSER, Route [Inhibitor]: GAVAGE, Species: MOUSE, Strain/Sex: ICR/FEMALE, Target Tissue: Type of Lesion: FORESTOMACH: PAPILLOMA OR CARCINOMA, Dose [Carcinogen]: 2 MG IN 0.1 ML PROPYLENE GLYCOL 2/WK FOR 12 WK) | tumour outcome (control, treated, inhibition, significance) (Carcinogen: BETA-PROPIOLACTONE, 57-57-8, Dose [Inhibitor]: 5.2 MG IN 0.1 ML PROPYLENE GLYCOL 2/WK FOR 12 WK GIVEN 4 HR PRIOR TO EACH CARCINOGEN ADMINISTRATION FOLLOWED BY AN OBSER, Route [Inhibitor]: GAVAGE, Species: MOUSE, Strain/Sex: ICR/FEMALE, Target Tissue: Type of Lesion: FORESTOMACH: PAPILLOMA OR CARCINOMA, Dose [Carcinogen]: 2 MG IN 0.1 ML PROPYLENE GLYCOL 2/WK FOR 12 WK)
C=CC(C)(O)CCC=C(C)C (centres undefined) | 50%, 26%, 48%, not significant | 82%, 79%, 4%, not significant |  |  |  |  |  |  | 
COc1ccc(O)cc1 |  |  | 100%, 100%, 0%, not significant | 97%, 100%, -3%, not significant | 85%, 46%, 46%, p<0.01 | 100%, 65%, 35%, p 0.053 | 100%, 41%, 59%, p<0.001 | 100%, 61%, 39%, p<0.001 | 97%, 47%, 52%, p<0.001
